Test results published in the kinase profiling compilation of Christmann-Franck et al. (2016).

Columns and labels:
Test in all cases: KINOMEscan competition binding
Details in all cases: compound 10.0 µM
ADCK3 (human) = ADCK3 (human) (UniProt Q8NI60)
AURKA (human) = AURKA (human) (UniProt O14965)
BRSK1 (human) = BRSK1 (human) (UniProt Q8TDC3)
CAMK2B (human) = CAMK2B (human) (UniProt Q13554)
CDC2L2 (human) = CDC2L2 (human) (UniProt Q9UQ88)
CDK16 (human) = CDK16 (human) (UniProt Q00536)
CDK8 (human) = CDK8 (human) (UniProt P49336)
CLK2 (human) = CLK2 (human) (UniProt P49760)
CSNK1A1 (human) = CSNK1A1 (human) (UniProt P48729)
DDR2 (human) = DDR2 (human) (UniProt Q16832)
FER (human) = FER (human) (UniProt P16591)
Sequence of FER (human) (P16591 whole entry, looked up): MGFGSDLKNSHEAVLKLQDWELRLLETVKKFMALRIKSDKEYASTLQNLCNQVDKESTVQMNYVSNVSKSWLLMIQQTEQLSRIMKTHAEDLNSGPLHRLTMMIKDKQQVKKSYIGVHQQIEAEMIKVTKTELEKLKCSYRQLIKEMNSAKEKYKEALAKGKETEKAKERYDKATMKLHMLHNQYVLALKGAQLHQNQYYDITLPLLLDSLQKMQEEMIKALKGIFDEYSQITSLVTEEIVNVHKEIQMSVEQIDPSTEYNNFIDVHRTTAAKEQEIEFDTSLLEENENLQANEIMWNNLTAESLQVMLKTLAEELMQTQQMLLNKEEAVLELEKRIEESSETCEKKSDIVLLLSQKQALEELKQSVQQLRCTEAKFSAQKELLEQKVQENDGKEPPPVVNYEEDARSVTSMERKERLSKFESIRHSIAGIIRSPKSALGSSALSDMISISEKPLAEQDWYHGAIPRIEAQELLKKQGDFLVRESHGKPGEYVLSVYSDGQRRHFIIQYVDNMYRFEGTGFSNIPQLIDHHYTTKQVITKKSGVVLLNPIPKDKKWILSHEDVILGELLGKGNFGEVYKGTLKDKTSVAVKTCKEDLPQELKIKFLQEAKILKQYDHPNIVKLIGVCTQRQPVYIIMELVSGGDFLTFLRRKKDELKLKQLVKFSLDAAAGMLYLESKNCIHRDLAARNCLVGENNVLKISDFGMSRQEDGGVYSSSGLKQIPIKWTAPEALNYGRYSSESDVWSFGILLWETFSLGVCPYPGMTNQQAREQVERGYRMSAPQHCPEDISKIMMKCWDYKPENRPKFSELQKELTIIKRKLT

FGFR3 (human) = FGFR3 (human) (UniProt P22607)
FGFR4 (human) = FGFR4 (human) (UniProt P22455)
[1] = system: FLT3 (human), P36888 [R834Q]
FLT4 (human) = FLT4 (human) (UniProt P35916)
LATS2 (human) = LATS2 (human) (UniProt Q9NRM7)
MAP2K5 (human) = MAP2K5 (human) (UniProt Q13163)
MAP2K7 (human) = MAP2K7 (human) (UniProt O14733)
MAPK11 (human) = MAPK11 (human) (UniProt Q15759)
Sequence of MAPK11 (human) (Q15759 whole entry, looked up): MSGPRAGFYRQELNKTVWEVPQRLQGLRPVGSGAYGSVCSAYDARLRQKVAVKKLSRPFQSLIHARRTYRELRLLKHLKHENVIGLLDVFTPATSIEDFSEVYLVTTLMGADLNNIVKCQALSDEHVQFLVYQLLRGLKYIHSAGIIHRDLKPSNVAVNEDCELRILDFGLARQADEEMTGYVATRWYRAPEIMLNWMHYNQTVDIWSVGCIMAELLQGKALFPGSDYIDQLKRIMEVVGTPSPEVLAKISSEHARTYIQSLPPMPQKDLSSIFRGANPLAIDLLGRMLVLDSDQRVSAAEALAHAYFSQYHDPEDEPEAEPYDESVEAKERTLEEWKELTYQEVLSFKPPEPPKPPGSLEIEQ

MAPK7 (human) = MAPK7 (human) (UniProt Q13164)
MUSK (human) = MUSK (human) (UniProt O15146)
MYLK3 (human) = MYLK3 (human) (UniProt Q32MK0)
Sequence of MYLK3 (human) (Q32MK0 whole entry, looked up): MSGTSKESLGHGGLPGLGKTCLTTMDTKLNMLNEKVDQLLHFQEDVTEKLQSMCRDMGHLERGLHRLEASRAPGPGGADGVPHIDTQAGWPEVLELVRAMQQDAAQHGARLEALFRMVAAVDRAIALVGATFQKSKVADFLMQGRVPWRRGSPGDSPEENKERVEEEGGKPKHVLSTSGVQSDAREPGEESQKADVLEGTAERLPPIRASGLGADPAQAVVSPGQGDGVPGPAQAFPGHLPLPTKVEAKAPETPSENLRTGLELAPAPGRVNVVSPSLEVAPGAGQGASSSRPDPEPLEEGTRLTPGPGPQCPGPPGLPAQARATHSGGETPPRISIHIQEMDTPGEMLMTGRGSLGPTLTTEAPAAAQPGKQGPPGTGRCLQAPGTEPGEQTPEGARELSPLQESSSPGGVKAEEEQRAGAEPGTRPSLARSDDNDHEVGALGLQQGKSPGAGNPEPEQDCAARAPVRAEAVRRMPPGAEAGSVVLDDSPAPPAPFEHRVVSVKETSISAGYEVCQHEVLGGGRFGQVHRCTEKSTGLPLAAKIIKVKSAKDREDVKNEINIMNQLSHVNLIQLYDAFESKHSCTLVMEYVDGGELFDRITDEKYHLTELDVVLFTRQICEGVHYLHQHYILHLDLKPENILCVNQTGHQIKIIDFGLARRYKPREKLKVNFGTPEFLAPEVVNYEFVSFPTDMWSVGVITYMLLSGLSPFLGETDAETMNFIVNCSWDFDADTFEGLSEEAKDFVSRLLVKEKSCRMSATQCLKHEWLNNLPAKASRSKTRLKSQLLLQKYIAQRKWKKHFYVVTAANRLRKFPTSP

MYO3A (human) = MYO3A (human) (UniProt Q8NEV4)
MYO3B (human) = MYO3B (human) (UniProt Q8WXR4)
NTRK1 (human) = NTRK1 (human) (UniProt P04629)
PAK4 (human) = PAK4 (human) (UniProt O96013)
PLK1 (human) = PLK1 (human) (UniProt P53350)
PLK2 (human) = PLK2 (human) (UniProt Q9NYY3)
PRKACA (human) = PRKACA (human) (UniProt P17612)
PRKACB (human) = PRKACB (human) (UniProt P22694)
PRKCH (human) = PRKCH (human) (UniProt P24723)
RIPK4 (human) = RIPK4 (human) (UniProt P57078)
SRC (human) = SRC (human) (UniProt P12931)
STK24 (human) = STK24 (human) (UniProt Q9Y6E0)
Sequence of STK24 (human) (Q9Y6E0 whole entry, looked up): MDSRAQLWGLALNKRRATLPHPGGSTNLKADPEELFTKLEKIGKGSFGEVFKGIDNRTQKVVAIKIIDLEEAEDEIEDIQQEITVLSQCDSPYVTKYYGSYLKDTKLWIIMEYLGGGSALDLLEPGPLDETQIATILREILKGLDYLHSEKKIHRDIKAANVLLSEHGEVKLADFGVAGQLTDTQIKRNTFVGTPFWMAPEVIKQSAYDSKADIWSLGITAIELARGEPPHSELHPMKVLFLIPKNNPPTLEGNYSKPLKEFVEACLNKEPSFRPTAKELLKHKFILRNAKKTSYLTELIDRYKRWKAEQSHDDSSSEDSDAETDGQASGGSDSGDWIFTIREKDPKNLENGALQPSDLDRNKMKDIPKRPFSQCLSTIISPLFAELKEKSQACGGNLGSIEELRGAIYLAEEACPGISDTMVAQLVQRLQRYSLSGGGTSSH

STK3 (human) = STK3 (human) (UniProt Q13188)
TEC (human) = TEC (human) (UniProt P42680)
TGFBR2 (human) = TGFBR2 (human) (UniProt P37173)
Sequence of TGFBR2 (human) (P37173 whole entry, looked up): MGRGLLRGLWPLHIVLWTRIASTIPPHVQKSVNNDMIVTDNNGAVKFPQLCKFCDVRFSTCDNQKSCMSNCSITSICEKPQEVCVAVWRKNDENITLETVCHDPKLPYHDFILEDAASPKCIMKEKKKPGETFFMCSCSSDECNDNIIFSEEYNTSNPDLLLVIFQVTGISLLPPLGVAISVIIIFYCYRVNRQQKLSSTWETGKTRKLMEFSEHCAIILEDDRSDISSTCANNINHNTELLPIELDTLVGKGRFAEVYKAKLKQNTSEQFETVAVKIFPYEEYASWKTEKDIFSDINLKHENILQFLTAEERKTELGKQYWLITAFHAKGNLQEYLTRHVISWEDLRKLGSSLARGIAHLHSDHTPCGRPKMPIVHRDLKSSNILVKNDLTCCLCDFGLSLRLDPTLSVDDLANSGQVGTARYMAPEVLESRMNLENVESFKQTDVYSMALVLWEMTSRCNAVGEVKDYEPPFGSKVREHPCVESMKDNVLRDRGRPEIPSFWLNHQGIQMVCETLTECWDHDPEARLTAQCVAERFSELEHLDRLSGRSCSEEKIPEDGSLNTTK

TLK2 (human) = TLK2 (human) (UniProt Q86UE8)
Sequence of TLK2 (human) (Q86UE8 whole entry, looked up): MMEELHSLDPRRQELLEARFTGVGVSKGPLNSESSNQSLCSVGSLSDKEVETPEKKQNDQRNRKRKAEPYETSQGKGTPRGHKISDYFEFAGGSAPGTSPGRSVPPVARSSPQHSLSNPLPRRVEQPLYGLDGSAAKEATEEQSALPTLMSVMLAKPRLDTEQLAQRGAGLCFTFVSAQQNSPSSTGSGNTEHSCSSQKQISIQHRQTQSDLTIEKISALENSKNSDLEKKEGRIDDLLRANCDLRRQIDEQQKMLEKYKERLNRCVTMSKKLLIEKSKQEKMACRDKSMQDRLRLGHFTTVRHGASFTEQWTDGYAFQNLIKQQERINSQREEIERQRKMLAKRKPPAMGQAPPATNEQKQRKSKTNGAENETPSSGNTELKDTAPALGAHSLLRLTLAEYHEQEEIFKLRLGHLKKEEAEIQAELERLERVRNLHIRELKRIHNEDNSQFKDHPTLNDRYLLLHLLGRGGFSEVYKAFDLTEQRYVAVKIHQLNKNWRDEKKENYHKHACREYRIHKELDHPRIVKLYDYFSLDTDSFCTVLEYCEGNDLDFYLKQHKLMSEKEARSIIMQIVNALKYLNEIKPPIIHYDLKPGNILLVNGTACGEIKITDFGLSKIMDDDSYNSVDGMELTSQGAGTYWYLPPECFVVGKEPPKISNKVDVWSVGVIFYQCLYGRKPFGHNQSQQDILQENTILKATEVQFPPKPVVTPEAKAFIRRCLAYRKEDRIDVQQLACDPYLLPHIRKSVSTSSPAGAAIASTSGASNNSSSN

TNIK (human) = TNIK (human) (UniProt Q9UKE5)
YES1 (human) = YES1 (human) (UniProt P07947)
Sequence of YES1 (human) (P07947 whole entry, looked up): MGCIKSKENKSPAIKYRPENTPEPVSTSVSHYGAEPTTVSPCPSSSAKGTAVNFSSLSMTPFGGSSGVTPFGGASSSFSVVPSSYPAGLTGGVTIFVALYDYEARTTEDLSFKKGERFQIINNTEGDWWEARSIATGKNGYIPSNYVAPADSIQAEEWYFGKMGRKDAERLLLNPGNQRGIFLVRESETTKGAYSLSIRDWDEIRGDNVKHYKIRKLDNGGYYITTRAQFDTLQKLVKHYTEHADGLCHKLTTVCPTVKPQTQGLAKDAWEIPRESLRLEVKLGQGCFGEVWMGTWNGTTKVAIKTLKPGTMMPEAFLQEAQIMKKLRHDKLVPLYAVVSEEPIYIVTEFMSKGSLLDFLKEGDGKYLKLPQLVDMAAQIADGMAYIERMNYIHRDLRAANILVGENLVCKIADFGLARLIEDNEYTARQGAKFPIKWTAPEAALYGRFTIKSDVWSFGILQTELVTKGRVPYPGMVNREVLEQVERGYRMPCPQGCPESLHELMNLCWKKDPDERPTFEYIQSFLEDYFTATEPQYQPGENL

YSK4 (human) = YSK4 (human) (UniProt Q56UN5)

Sequence of ADCK3 (human) (Q8NI60 whole entry, looked up): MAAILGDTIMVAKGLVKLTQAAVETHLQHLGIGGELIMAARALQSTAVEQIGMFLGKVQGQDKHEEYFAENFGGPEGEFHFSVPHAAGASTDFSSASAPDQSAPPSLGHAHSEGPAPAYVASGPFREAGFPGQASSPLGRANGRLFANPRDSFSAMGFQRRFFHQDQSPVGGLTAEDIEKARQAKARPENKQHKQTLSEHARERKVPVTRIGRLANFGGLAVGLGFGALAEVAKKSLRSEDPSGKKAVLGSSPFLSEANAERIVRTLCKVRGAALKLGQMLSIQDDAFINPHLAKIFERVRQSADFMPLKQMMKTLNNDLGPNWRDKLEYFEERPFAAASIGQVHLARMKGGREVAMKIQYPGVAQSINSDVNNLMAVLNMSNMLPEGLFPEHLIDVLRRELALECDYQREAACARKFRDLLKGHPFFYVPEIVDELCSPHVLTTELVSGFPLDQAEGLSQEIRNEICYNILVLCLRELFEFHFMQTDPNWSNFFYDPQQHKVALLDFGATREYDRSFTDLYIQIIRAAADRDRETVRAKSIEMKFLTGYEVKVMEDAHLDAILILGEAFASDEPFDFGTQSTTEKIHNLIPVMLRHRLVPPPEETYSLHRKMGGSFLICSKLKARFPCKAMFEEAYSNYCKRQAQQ

CN(C)C/C=C/C(=O)Nc1ccc(C(=O)Nc2cccc(Nc3nccc(-c4cccnc4)n3)c2)cc1
kinase still bound, per cent of control (ADCK3 (human)): 100% | kinase still bound, per cent of control (AURKA (human)): 11% | kinase still bound, per cent of control (BRSK1 (human)): 100% | kinase still bound, per cent of control (CAMK2B (human)): 60% | kinase still bound, per cent of control (CDC2L2 (human)): 100% | kinase still bound, per cent of control (CDK16 (human)): 91% | kinase still bound, per cent of control (CDK8 (human)): 78% | kinase still bound, per cent of control (CLK2 (human)): 2.2% | kinase still bound, per cent of control (CSNK1A1 (human)): 27% | kinase still bound, per cent of control (DDR2 (human)): 64% | kinase still bound, per cent of control (FER (human)): 100% | kinase still bound, per cent of control (FGFR3 (human)): 96% | kinase still bound, per cent of control (FGFR4 (human)): 100% | kinase still bound, per cent of control [1]: 83% | kinase still bound, per cent of control (FLT4 (human)): 97% | kinase still bound, per cent of control (LATS2 (human)): 86% | kinase still bound, per cent of control (MAP2K5 (human)): 41% | kinase still bound, per cent of control (MAP2K7 (human)): 80% | kinase still bound, per cent of control (MAPK11 (human)): 88% | kinase still bound, per cent of control (MAPK7 (human)): 100% | kinase still bound, per cent of control (MUSK (human)): 61% | kinase still bound, per cent of control (MYLK3 (human)): 87% | kinase still bound, per cent of control (MYO3A (human)): 73% | kinase still bound, per cent of control (MYO3B (human)): 100% | kinase still bound, per cent of control (NTRK1 (human)): 60% | kinase still bound, per cent of control (PAK4 (human)): 83% | kinase still bound, per cent of control (PLK1 (human)): 100% | kinase still bound, per cent of control (PLK2 (human)): 81% | kinase still bound, per cent of control (PRKACA (human)): 100% | kinase still bound, per cent of control (PRKACB (human)): 100% | kinase still bound, per cent of control (PRKCH (human)): 100% | kinase still bound, per cent of control (RIPK4 (human)): 33% | kinase still bound, per cent of control (SRC (human)): 100% | kinase still bound, per cent of control (STK24 (human)): 100% | kinase still bound, per cent of control (STK3 (human)): 100% | kinase still bound, per cent of control (TEC (human)): 100% | kinase still bound, per cent of control (TGFBR2 (human)): 50% | kinase still bound, per cent of control (TLK2 (human)): 100% | kinase still bound, per cent of control (TNIK (human)): 36% | kinase still bound, per cent of control (YES1 (human)): 100% | kinase still bound, per cent of control (YSK4 (human)): 0.1%

O=C(Nc1cccc(Nc2ncc(Br)c(NCCc3cnc[nH]3)n2)c1)N1CCCC1
kinase still bound, per cent of control (ADCK3 (human)): 100% | kinase still bound, per cent of control (AURKA (human)): 1.6% | kinase still bound, per cent of control (BRSK1 (human)): 7.6% | kinase still bound, per cent of control (CAMK2B (human)): 35% | kinase still bound, per cent of control (CDC2L2 (human)): 52% | kinase still bound, per cent of control (CDK16 (human)): 40% | kinase still bound, per cent of control (CDK8 (human)): 97% | kinase still bound, per cent of control (CLK2 (human)): 2.2% | kinase still bound, per cent of control (CSNK1A1 (human)): 28% | kinase still bound, per cent of control (DDR2 (human)): 65% | kinase still bound, per cent of control (FER (human)): 47% | kinase still bound, per cent of control (FGFR3 (human)): 1% | kinase still bound, per cent of control (FGFR4 (human)): 1.8% | kinase still bound, per cent of control [1]: 7% | kinase still bound, per cent of control (FLT4 (human)): 0.05% | kinase still bound, per cent of control (LATS2 (human)): 0% | kinase still bound, per cent of control (MAP2K5 (human)): 0.6% | kinase still bound, per cent of control (MAP2K7 (human)): 60% | kinase still bound, per cent of control (MAPK11 (human)): 90% | kinase still bound, per cent of control (MAPK7 (human)): 62% | kinase still bound, per cent of control (MUSK (human)): 9.4% | kinase still bound, per cent of control (MYLK3 (human)): 0.1% | kinase still bound, per cent of control (MYO3A (human)): 28% | kinase still bound, per cent of control (MYO3B (human)): 93% | kinase still bound, per cent of control (NTRK1 (human)): 0.2% | kinase still bound, per cent of control (PAK4 (human)): 4% | kinase still bound, per cent of control (PLK1 (human)): 41% | kinase still bound, per cent of control (PLK2 (human)): 11% | kinase still bound, per cent of control (PRKACA (human)): 0.95% | kinase still bound, per cent of control (PRKACB (human)): 1% | kinase still bound, per cent of control (PRKCH (human)): 33% | kinase still bound, per cent of control (RIPK4 (human)): 0.3% | kinase still bound, per cent of control (SRC (human)): 4% | kinase still bound, per cent of control (STK24 (human)): 2% | kinase still bound, per cent of control (STK3 (human)): 0.45% | kinase still bound, per cent of control (TEC (human)): 47% | kinase still bound, per cent of control (TGFBR2 (human)): 100% | kinase still bound, per cent of control (TLK2 (human)): 56% | kinase still bound, per cent of control (TNIK (human)): 0.8% | kinase still bound, per cent of control (YES1 (human)): 31% | kinase still bound, per cent of control (YSK4 (human)): 0%
